Source: patent US20230357179A1, “RAF KINASE INHIBITORS AND METHODS OF USE THEREOF” (Deciphera Pharmaceuticals, LLC, priority 2021, published 2023)

How the values were obtained:
Miapaca-2 cells = assay: MiaPaca-2 cell proliferation assay (1), resazurin, 96-well; type: cell-based; conditions: Homo sapiens, MIA PaCa-2, inhibition of cell proliferation
Protocol: MiaPaca-2 Cell Proliferation Assay (1)
Miapaca-2 cells (catalog #CRL-1420) are obtained from the American Type Culture Collect (ATTC, Manassas, VA). Briefly, cells were grown in DMEM supplemented with 10% characterized fetal bovine serum (Invitrogen, Carlsbad, CA), 2.5% New Zealand sourced horse serum and 1% Penicillin/Streptomycin/L-Glutamine at 37° C., 5% CO2, and 95% humidity. Cells are expanded until reaching 70-95% confluency at which point they are subcultured or harvested for assay use. A serial dilution of test compound is dispensed into a 96-well black clear bottom plate in triplicate. Three thousand cells are added per well in 200 μL complete growth medium in the 96-well plate. Plates are incubated for 67-72 hours at 37° C., 5% CO2, and 95% humidity. At the end of the incubation, 40 μL of a 440 μM solution of resazurin (Sigma, St. Louis, MO) in PBS is added to each well of the plate and plates are incubated for an additional 5-6 hours at 37° C., 5% CO2, and 95% humidity. Plates are read on a Synergy2 or equivalent reader (Biotek, Winooski VT) using an excitation of 540 nm and an emission of 600 nm. Data is analyzed using Prism software (GraphPad, San Diego, CA) to calculate IC50 values.

C-Raf kinase = biological target: T1, C-Raf kinase (Homo sapiens, UniProt P04049, Y340D/Y341D); assay: Biochemical assay for C-Raf.1 (coupled pyruvate kinase/lactate dehydrogenase); conditions: read-out: CRAF.1 IC50
T1 construct: Y340D,; GST (N); purchased Sigma
T1 sequence (P04049 307-648 Y340D/Y341D): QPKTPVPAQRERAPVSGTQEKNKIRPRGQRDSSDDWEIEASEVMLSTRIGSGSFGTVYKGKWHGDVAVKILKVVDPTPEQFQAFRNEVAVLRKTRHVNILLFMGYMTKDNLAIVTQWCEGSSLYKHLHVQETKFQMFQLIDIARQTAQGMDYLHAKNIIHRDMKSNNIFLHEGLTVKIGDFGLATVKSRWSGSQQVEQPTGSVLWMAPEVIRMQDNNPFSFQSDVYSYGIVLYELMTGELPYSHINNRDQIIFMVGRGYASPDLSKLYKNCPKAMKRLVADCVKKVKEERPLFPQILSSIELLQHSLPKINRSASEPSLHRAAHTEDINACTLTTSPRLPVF
In short: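 NADH depletion at 340 nm monitored continuously for 6 h at 30° C, with rates taken over 4–5 h. The coupled pyruvate kinase/lactate dehydrogenase reaction used 1 mM ATP, 30.1 nM MEK substrate and 0.43 nM kinase at pH 7.5. IC50 was fitted sigmoidally from percent inhibition of serially diluted compound.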

A375 cells = assay: A375 cell proliferation assay (1), resazurin, 96-well; type: cell-based; conditions: Homo sapiens, A-375, inhibition of cell proliferation
In short: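 Viability was read by resazurin fluorescence at 540 nm excitation and 600 nm emission, using a 440 μM solution added for 5–6 h at the end of culture. IC50 came from the curve fit.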

WM3928 cells = assay: WM3928 cell proliferation assay (1), resazurin, 96-well; type: cell-based; conditions: inhibition of cell proliferation
Protocol: WM3928 Cell Proliferation Assay (1)
WM3928 cells (#WM3928-01-0001) are obtained from Rockland Immunochemicals Inc (Gilbertsville, PA). Briefly, cells were grown in MCDB 153 medium (Sigma, #M7403, St. Louis, MO) supplemented with 20% Leibovitz's L-15 (ThermoFisher #11415-064, Waltham, MA), 2% heat inactivated fetal bovine serum (ThermoFisher, #A3840001, Waltham, MA), 5 μg/mL Insulin (Bovine Pancreas) (Sigma, #I0516, St. Louis, MO), 1.68 mM Calcium Chloride (Sigma, #C-34006, St. Louis, MO) and 1% Penicillin/Streptomycin/L-Glutamine (ThermoFisher #10378016, Waltham, MA) at 37° C., 5% CO2, and 95% humidity. Cells are expanded until reaching 70-95% confluency at which point they are subcultured or harvested for assay use. A serial dilution of test compound is dispensed into a 96-well black clear bottom plate in triplicate. Three thousand cells are added per well in 200 μL complete growth medium in the 96-well plate. Plates are incubated for 67-72 hours at 37° C., 5% CO2, and 95% humidity. At the end of the incubation, 40 μL of a 440 μM solution of resazurin (Sigma, #199303, St. Louis, MO) in PBS is added to each well of the plate and plates are incubated for an additional 6-7 hours at 37° C., 5% CO2, and 95% humidity. Plates are read on a Synergy2 or equivalent reader (Biotek, Winooski VT) using an excitation of 540 nm and an emission of 600 nm. Data is analyzed using Prism software (GraphPad, San Diego, CA) to calculate IC50 values.

| Compound | IC50 (Miapaca-2 cells) [nM] | IC50 (C-Raf kinase) [nM] | IC50 (A375 cells) [nM] | IC50 (WM3928 cells) [nM] |
| --- | --- | --- | --- | --- |
| Cc1cc(F)c(NC(=O)NCCC(F)F)cc1-c1cc(OCCO)nc(-c2ccnc(NC(=O)C3CC3)c2)c1 [Example 105] | 1000 to 10000 | ≤ 100 | 1000 to 10000 | 500 to 1000 |
| Cc1cc(F)c(NC(=O)NCCC(C)C)cc1-c1cc(OCCO)nc(-c2ccnc(NC(=O)C3CC3)c2)c1 [Example 106] | 1000 to 10000 | ≤ 100 | 100 to 500 | ≤ 100 |
| Cc1ncc(NC(=O)NCCC2(C)CC2)cc1-c1ccnc(-c2ccnc(NC(=O)C3CC3)c2)n1 [Example 107] | 1000 to 10000 | ≤ 100 | 1000 to 10000 | 100 to 500 |
| COC(C)(C)CCNC(=O)Nc1cc(-c2ccnc(-c3ccnc(NC(=O)C4CC4)c3)n2)c(C)cc1F [Example 108] | 1000 to 10000 | ≤ 100 | 500 to 1000 | 100 to 500 |
| COC(=O)Nc1cc(-c2cc(-c3cc(NC(=O)NCCC(C)(C)C)cnc3C)ccn2)ccn1 [Example 109] | 1000 to 10000 | ≤ 100 | 1000 to 10000 | 100 to 500 |
| Cc1cc(F)c(NC(=O)NCCC2(C)COC2)cc1-c1cc(OCCO)nc(-c2ccnc3[nH]ncc23)c1 [Example 110] | 1000 to 10000 | 100 to 500 | 1000 to 10000 | 1000 to 10000 |
| Cc1cc(F)c(NC(=O)NCC23CC(F)(C2)C3)cc1-c1cc(OCCO)nc(-c2ccnc3[nH]ncc23)c1 [Example 111] | 1000 to 10000 | ≤ 100 | 1000 to 10000 | 1000 to 10000 |
| Cc1ncc(NC(=O)NCCC2(C)CC2)cc1-c1cc(OCCO)nc(-c2ccnc3c2CC(=O)N3)c1 [Example 112] | 1000 to 10000 | ≤ 100 | 1000 to 10000 | 1000 to 10000 |
| Cc1ncc(NC(=O)NCCC2(C)CC2)cc1-c1cc(OCCO)nc(-c2ccnc(NC(=O)C3CC3)c2)c1 [Example 113] | 1000 to 10000 | ≤ 100 | 100 to 500 | ≤ 100 |
| Cc1cc(F)c(NC(=O)NCCC(C)(C)F)cc1-c1nccc(-c2ccnc(NC(=O)C3CC3)c2)n1 [Example 114] | 1000 to 10000 | ≤ 100 | 1000 to 10000 | 500 to 1000 |
| COC(=O)Nc1cc(-c2cc(-c3cc(NC(=O)NCCC(C)C)c(F)cc3C)cc(OCCO)n2)ccn1 [Example 115] | 1000 to 10000 | ≤ 100 | 100 to 500 | ≤ 100 |
| CNC(=O)c1cc(-c2cnnc(-c3cc(NC(=O)NCCC(C)(C)C)c(F)cc3C)c2)ccn1 [Example 119] | 1000 to 10000 | 100 to 500 | 1000 to 10000 | 1000 to 10000 |
| Cc1ncc(NC(=O)NCCC(C)(C)C)cc1-c1cc(-c2ccnc(NC(=O)C3CC3)c2)cnn1 [Example 120] | 1000 to 10000 | ≤ 100 | 1000 to 10000 | 1000 to 10000 |
| Cc1ncc(NC(=O)NC2CC(C)(C)C2)cc1-c1cc(OCCO)nc(-c2ccnc(NC(=O)C3CC3)c2)n1 [Example 144] | 1000 to 10000 | ≤ 100 | 500 to 1000 | 500 to 1000 |
| COC[C@H]1CCN(C(=O)Nc2cc(-c3cc(-c4ccnc(NC(=O)OC)c4)cnn3)c(C)cc2F)C1 [Example 148] | 1000 to 10000 | 500 to 1000 | 1000 to 10000 |  |
| COC(=O)Nc1cc(-c2cnnc(-c3cc(NC(=O)N4CCC(CC(F)(F)F)C4)c(F)cc3C)c2)ccn1 (stereo not drawn) [Example 150] |  | ≤ 100 | 1000 to 10000 | 1000 to 10000 |
| COC(=O)Nc1cc(-c2cc(-c3cc(NC(=O)NC4CC(C)(C)C4)cnc3C)cc(OCCO)n2)ccn1 [Example 156] |  | ≤ 100 | 1000 to 10000 | 100 to 500 |
| COC(=O)Nc1cc(-c2nc(OCCO)cc(-c3cc(NC(=O)NC4CC(C)(C)C4)c(F)cc3C)n2)ccn1 [Example 158] | 1000 to 10000 | ≤ 100 | ≤ 100 | ≤ 100 |
| COC(=O)Nc1cc(-c2nc(OCCO)cc(-c3cc(NC(=O)NCCC(C)(C)F)c(F)cc3C)n2)ccn1 [Example 161] |  | ≤ 100 | 100 to 500 | ≤ 100 |
| COC(=O)Nc1cc(-c2cc(-c3cc(NC(=O)NCCC(C)(C)F)cnc3C)cc(OCCO)n2)ccn1 [Example 165] |  | ≤ 100 | 1000 to 10000 | 1000 to 10000 |
| COC(=O)Nc1cc(-c2cccc(-c3cc(NC(=O)NCCC4(C)CC4)cnc3C)c2)ncn1 [Example 170] |  | ≤ 100 | 500 to 1000 | 100 to 500 |

Second part, led by results:

| IC50 (Miapaca-2 cells) [nM] | IC50 (C-Raf kinase) [nM] | IC50 (A375 cells) [nM] | Compound | IC50 (WM3928 cells) [nM] |
| --- | --- | --- | --- | --- |
| 1000 to 10000 | ≤ 100 | 1000 to 10000 | Cc1cc(F)c(NC(=O)NCCC(C)(C)C)cc1-c1cc(OCCO)nc(C2=CCOCC2)c1 [Example 7] | 100 to 500 |
|  | ≤ 100 | 100 to 500 | Cc1cc(F)c(NC(=O)NCCC(C)(C)C)cc1-c1cc(N2CCOCC2)nc(N2CCOCC2)c1 [Example 10] | 100 to 500 |
| 1000 to 10000 | ≤ 100 | 500 to 1000 | Cc1cc(F)c(NC(=O)NCCC(C)(C)F)cc1-c1cc(OCCO)nc(-c2ccnc3[nH]ncc23)c1 [Example 94] | 100 to 500 |
| 1000 to 10000 | ≤ 100 | 1000 to 10000 | Cc1cc(F)c(NC(=O)NCCC(C)(C)F)cc1-c1cc(OCCO)nc(-c2ccnc3[nH]ccc23)c1 [Example 97] | 100 to 500 |
| 1000 to 10000 | ≤ 100 | 1000 to 10000 | Cc1cc(F)c(NC(=O)NCC(C)C)cc1-c1cc(OCCO)nc(-c2ccnc(NC(=O)C3CC3)c2)c1 [Example 99] | 100 to 500 |
| 1000 to 10000 | ≤ 100 | 1000 to 10000 | Cc1cc(F)c(NC(=O)NCCC(C)(C)F)cc1-c1cccc(-c2ccnc3[nH]ncc23)c1 [Example 100] | 500 to 1000 |
| 1000 to 10000 | ≤ 100 | 1000 to 10000 | Cc1cc(F)c(NC(=O)NC2CC3(COC3)C2)cc1-c1cc(OCCO)nc(-c2ccnc3[nH]ncc23)c1 [Example 101] | 1000 to 10000 |
| 1000 to 10000 | ≤ 100 | 1000 to 10000 | Cc1ncc(NC(=O)NC[C@H](O)C(C)(C)C)cc1-c1ccnc(-c2ccnc(NC(=O)C3CC3)c2)c1 [Example 102] | 1000 to 10000 |
| 1000 to 10000 | ≤ 100 | 1000 to 10000 | COC(=O)Nc1cc(-c2cc(-c3cc(NC(=O)NCCC4(C)CC4)cnc3C)ccn2)ccn1 [Example 103] | 500 to 1000 |
| 1000 to 10000 | ≤ 100 | 1000 to 10000 | COC1(CCNC(=O)Nc2cc(-c3cccc(-c4cc(NC(=O)C5CC5)ncn4)c3)c(C)cc2F)CC1 [Example 104] | 100 to 500 |
